From patent publication US7989464B2, “mGluR1 antagonists as therapeutic agents” (Schering Corporation, priority 2004, dated 2011)

The compounds below were run against T1, hmGluR1 receptor (Homo sapiens, UniProt Q13255) (assay: IC50 determination: intracellular calcium mobilization (FLIPR) upon Quisqualate stimulation in CHO cells stably expressing hmGluR1). Details: against Quisqualate 1 μM (EC80), FLIPR calcium mobilization, read-out: IC50 Class.
T1 construct: expressed in transfected cells
Type: cell-based
Outline: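 CHO cells stably expressing hmGluR1 were kept overnight in DMEM high glucose with GPT and 1 mM pyruvate, then loaded 2 h with Calcium 3 dye.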

T1 sequence (Q13255 19-1194): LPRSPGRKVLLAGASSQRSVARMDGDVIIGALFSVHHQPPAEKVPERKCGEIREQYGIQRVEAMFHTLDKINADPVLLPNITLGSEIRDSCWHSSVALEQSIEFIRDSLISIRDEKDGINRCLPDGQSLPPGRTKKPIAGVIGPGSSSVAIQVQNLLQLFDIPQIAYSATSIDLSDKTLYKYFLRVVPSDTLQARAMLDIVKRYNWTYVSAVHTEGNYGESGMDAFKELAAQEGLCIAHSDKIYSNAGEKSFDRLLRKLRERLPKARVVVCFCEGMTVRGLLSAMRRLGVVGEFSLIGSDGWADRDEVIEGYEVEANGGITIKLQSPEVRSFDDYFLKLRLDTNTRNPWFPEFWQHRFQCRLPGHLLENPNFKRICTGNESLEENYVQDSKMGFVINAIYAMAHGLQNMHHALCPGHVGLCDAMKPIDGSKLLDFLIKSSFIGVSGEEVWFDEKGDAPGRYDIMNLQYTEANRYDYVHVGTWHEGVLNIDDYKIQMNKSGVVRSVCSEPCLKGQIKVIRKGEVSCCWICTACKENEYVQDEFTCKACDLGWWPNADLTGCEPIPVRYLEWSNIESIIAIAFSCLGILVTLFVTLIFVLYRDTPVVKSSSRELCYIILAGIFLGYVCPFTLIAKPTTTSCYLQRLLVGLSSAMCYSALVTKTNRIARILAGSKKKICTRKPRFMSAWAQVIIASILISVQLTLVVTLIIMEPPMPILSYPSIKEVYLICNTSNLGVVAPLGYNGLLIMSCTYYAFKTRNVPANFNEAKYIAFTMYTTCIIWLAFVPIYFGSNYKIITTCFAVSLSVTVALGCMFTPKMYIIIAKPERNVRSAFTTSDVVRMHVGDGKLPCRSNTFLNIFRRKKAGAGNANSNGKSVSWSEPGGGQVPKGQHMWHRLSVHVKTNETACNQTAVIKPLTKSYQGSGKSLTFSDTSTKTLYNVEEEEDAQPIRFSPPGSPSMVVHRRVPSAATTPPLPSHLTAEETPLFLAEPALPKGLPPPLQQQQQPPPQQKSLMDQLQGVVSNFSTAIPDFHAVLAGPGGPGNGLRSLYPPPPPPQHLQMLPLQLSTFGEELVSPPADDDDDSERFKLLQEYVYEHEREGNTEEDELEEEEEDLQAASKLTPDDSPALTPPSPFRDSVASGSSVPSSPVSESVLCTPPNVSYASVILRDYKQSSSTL

| SMILES | IC50 |
| --- | --- |
| Cc1ccc(-n2cnc3c(sc4cnnc(Cl)c43)c2=O)cc1 [compound 166] | > 1 µM |
| Cc1ccc(-n2cnc3c(sc4ncc(Br)c(Cl)c43)c2=O)cc1 [compound 171] | > 1 µM |
| Nc1c([N+](=O)[O-])cnc2sc3c(=O)n(C4CCCCC4)cnc3c12 [compound 174] | 0.15 to 1 µM |
| Cc1ccc(-n2cnc3c(sc4ncc(I)c(N)c43)c2=O)cc1 [compound 175] | < 0.05 µM |
| O=c1c2sc3nccc(Oc4ccccc4)c3c2ncn1-c1ccc(Cl)cc1 [compound 176] | > 1 µM |
| CC#Cc1ccnc2sc3c(=O)n(-c4ccc(Cl)cc4)cnc3c12 [compound 177] | > 1 µM |
| O=c1c2sc3nccc(CC4CC4)c3c2ncn1-c1ccc(Cl)cc1 [compound 179] | 0.15 to 1 µM |
| COc1ccnc2sc3c(=O)n(-c4ccc(F)cc4)cnc3c12 [compound 180] | 0.15 to 1 µM |
| CC(=O)c1ccnc2sc3c(=O)n(-c4ccc(Cl)cc4)cnc3c12 [compound 184] | 0.05 to 0.15 µM |
| CC(O)c1ccnc2sc3c(=O)n(-c4ccc(Cl)cc4)cnc3c12 (centres unmarked) [compound 185] | 0.05 to 0.15 µM |
| CC(C)(O)c1ccnc2sc3c(=O)n(-c4ccc(Cl)cc4)cnc3c12 [compound 186] | > 1 µM |
| O=c1c2sc3nccc(C4CC4)c3c2ncn1-c1ccc(Cl)cc1 [compound 187] | < 0.05 µM |
| CNc1c(Br)cnc2sc3c(=O)n(-c4ccc(Cl)cc4)cnc3c12 [compound 188] | < 0.05 µM |
| CNc1c(C#N)cnc2sc3c(=O)n(-c4ccc(Cl)cc4)cnc3c12 [compound 189] | 0.05 to 0.15 µM |
| CCCCOc1ncnc2sc3c(=O)n(-c4ccc(OC)cc4)cnc3c12 [compound 191] | > 1 µM |
| COc1ccc(-n2cnc3c(sc4ncc(F)c(N(C)C)c43)c2=O)cc1 [compound 192] | < 0.05 µM |
| CNc1ccnc2sc3c(=O)n(-c4ccc(Cl)cc4)cnc3c12 [compound 193] | < 0.05 µM |
| COc1ccc(-n2cnc3c(sc4ncc(C#N)c(N)c43)c2=O)cc1 [compound 194] | 0.15 to 1 µM |
| COc1ccc(-n2cnc3c(sc4nccc(Cl)c43)c2=O)cc1 [compound 195] | 0.15 to 1 µM |
| Nc1c(Br)cnc2sc3c(=O)n(-c4ccc(Cl)cc4)cnc3c12 [compound 196] | < 0.05 µM |
| COc1ccc(-n2cnc3c(sc4ncc(Cl)c(N(C)C)c43)c2=O)cc1 [compound 197] | < 0.05 µM |
| CNc1c(Cl)cnc2sc3c(=O)n(-c4ccc(OC)cc4)cnc3c12 [compound 198] | < 0.05 µM |

Second part, the compound after the results:

| IC50 | SMILES |
| --- | --- |
| < 0.05 µM | Cc1ccc(-n2cnc3c(sc4ncc(Br)c(N)c43)c2=O)cc1 [173A] |
| < 0.05 µM | COc1ccc(-n2cnc3c(sc4ncc(Br)c(N)c43)c2=O)cc1 [173B] |
| 0.05 to 0.15 µM | C=CCc1ccnc2sc3c(=O)n(-c4ccc(Cl)cc4)cnc3c12 [178A] |
| < 0.05 µM | C=CCc1cnc2sc3c(=O)n(-c4ccc(Cl)cc4)cnc3c2c1N [178B] |
| 0.15 to 1 µM | C=C(OCC)c1ccnc2sc3c(=O)n(-c4ccc(Cl)cc4)cnc3c12 [183A] |
| 0.15 to 1 µM | O=c1c2sc3ncccc3c2ncn1-c1ccc(Cl)cc1 [183B] |
| 0.05 to 0.15 µM | COc1ccc(Nc2ncnc3sc4c(=O)n(-c5ccc(OC)cc5)cnc4c23)cc1 [190B] |
| 0.15 to 1 µM | O=c1c2sc3nccc(Nc4ccccc4)c3c2ncn1-c1ccc(Cl)cc1 [190C] |
| 0.15 to 1 µM | COc1ccc(-n2cnc3c(sc4ncnc(Nc5nccs5)c43)c2=O)cc1 [190D] |
| 0.15 to 1 µM | COc1ccc(-n2cnc3c(sc4ncnc(Nc5ccc(Cl)cc5)c43)c2=O)cc1 [190E] |
| 0.15 to 1 µM | COc1ccc(-n2cnc3c(sc4ncnc(Nc5cccc(C#N)c5)c43)c2=O)cc1 [190I] |
| 0.15 to 1 µM | COc1ccc(-n2cnc3c(sc4ncnc(Nc5ccccn5)c43)c2=O)cc1 [190K] |
| > 1 µM | COc1ccc(-n2cnc3c(sc4ncnc(Nc5ccccc5Cl)c43)c2=O)cc1 [190N] |
| > 1 µM | Cc1ccc(-n2cnc3c(sc4ncc(C(=O)N(C)C)cc43)c2=O)cc1 [205A] |
| > 1 µM | Cc1ccc(-n2cnc3c(sc4ncc(C(=O)N5CCNCC5)cc43)c2=O)cc1 [205B] |
| 0.15 to 1 µM | Cc1ccc(-n2cnc3c(sc4ncc(C(N)=O)cc43)c2=O)cc1 [205C] |

Same assay, conditions: against Quisqualate 1 μM (EC80), FLIPR calcium mobilization, read-out: mGluR1 IC50

| IC50 | SMILES |
| --- | --- |
| 0.00146 µM | C=CCc1cnc2sc3c(=O)n(-c4ccc(Cl)cc4)cnc3c2c1N [178B] |
| 0.00076 µM | Cc1ccc(-n2cnc3c(sc4ncc(I)c(N)c43)c2=O)cc1 [compound 175] |
| 0.00018 µM | CNc1ccnc2sc3c(=O)n(-c4ccc(Cl)cc4)cnc3c12 [compound 193] |

Same assay, conditions: against Quisqualate 1 μM (EC80), class symbols, read-out: mGIuR 1 IC50

| SMILES | IC50 |
| --- | --- |
| O=c1c2sc3ncccc3c2ncn1-c1ccccc1 [compound 11] | > 1 µM |
| O=c1c2sc3nccc(Cl)c3c2ncn1-c1ccccc1 [compound 13] | 0.15 to 1 µM |
| O=c1c2sc3nc(Cl)ccc3c2ncn1-c1ccccc1 [compound 14] | > 1 µM |
| CN(C)c1ccnc2sc3c(=O)n(C4CCC5(CC4)OCCO5)cnc3c12 [compound 19] | 0.15 to 1 µM |
| COc1ccc(-n2cnc3c(sc4nccnc43)c2=O)cc1 [compound 40] | > 1 µM |
| CN(C)c1c(Cl)cnc2sc3c(=O)n(C4CCCCC4)cnc3c12 [compound 41] | 0.05 to 0.15 µM |
| CNc1c(Cl)cnc2sc3c(=O)n(C4CCCCC4)cnc3c12 [compound 42] | 0.05 to 0.15 µM |
| CN(C)c1c(Br)cnc2sc3c(=O)n(C4CCCCC4)cnc3c12 [compound 43] | 0.15 to 1 µM |
| CNc1c(Br)cnc2sc3c(=O)n(C4CCCCC4)cnc3c12 [compound 44] | < 0.05 µM |
| CN(C)c1c(C=O)cnc2sc3c(=O)n(C4CCCCC4)cnc3c12 [compound 45] | < 0.05 µM |
| CN(C)c1c(C#N)cnc2sc3c(=O)n(C4CCCCC4)cnc3c12 [compound 46] | < 0.05 µM |
| CNc1c(C#N)cnc2sc3c(=O)n(C4CCCCC4)cnc3c12 [compound 48] | 0.15 to 1 µM |
| CN(C)c1c(C(N)=O)cnc2sc3c(=O)n(C4CCCCC4)cnc3c12 [compound 49] | > 1 µM |
| CCNc1c(C#N)cnc2sc3c(=O)n(C4CCCCC4)cnc3c12 [compound 50] | 0.15 to 1 µM |
| CN(C)c1c([N+](=O)[O-])cnc2sc3c(=O)n(C4CCCCC4)cnc3c12 [compound 51] | < 0.05 µM |
| CNc1c([N+](=O)[O-])cnc2sc3c(=O)n(C4CCCCC4)cnc3c12 [compound 52] | 0.15 to 1 µM |
| CN(C)c1c[n+]([O-])cc2sc3c(=O)n(-c4ccc(Cl)cc4)cnc3c12 [compound 53] | > 1 µM |
| CN(C)c1c(Cl)ncc2sc3c(=O)n(-c4ccc(Cl)cc4)cnc3c12 [compound 54] | 0.15 to 1 µM |
| CN(C)c1c(C#N)ncc2sc3c(=O)n(-c4ccc(Cl)cc4)cnc3c12 [compound 55] | 0.05 to 0.15 µM |

| SMILES | IC50 |
| --- | --- |
| COc1cc(N(C)C)c2c(n1)sc1c(=O)n(-c3ccc(C)cc3)cnc12 [compound 58] | < 0.05 µM |
| CC(=O)N1CCN(c2ccnc3sc4c(=O)n(C5CCCCC5)cnc4c23)CC1 [compound 62] | > 1 µM |
| CS(=O)(=O)N1CCN(c2ccnc3sc4c(=O)n(C5CCCCC5)cnc4c23)CC1 [compound 63] | 0.15 to 1 µM |
| CCN(CC)C(=O)N1CCN(c2ccnc3sc4c(=O)n(C5CCCCC5)cnc4c23)CC1 [compound 64] | > 1 µM |
| Cc1ccc(-n2cnc3c(sc4nccc(C(N)=O)c43)c2=O)cc1 [compound 76] | > 1 µM |
| Cc1ccc(-n2cnc3c(sc4nccc(C(=O)O)c43)c2=O)cc1 [compound 77] | > 1 µM |
| COc1cc(Cl)nc2sc3c(=O)n(C4CCCCC4)cnc3c12 [compound 78] | > 1 µM |
| COc1cc(O)nc2sc3c(=O)n(C4CCCCC4)cnc3c12 [compound 80] | > 1 µM |
| CN(C)c1cc(Cl)nc2sc3c(=O)n(C4CCCCC4)cnc3c12 [compound 83] | 0.05 to 0.15 µM |
| CN(C)c1cc(C#N)nc2sc3c(=O)n(C4CCCCC4)cnc3c12 [compound 84] | 0.05 to 0.15 µM |
| CN(C)c1cc(N2CCCC2)nc2sc3c(=O)n(C4CCCCC4)cnc3c12 [compound 85] | > 1 µM |
| CN(C)c1ccc(F)c2sc3c(=O)n(C4CCCCC4)cnc3c12 [compound 104] | > 1 µM |
| CN(C)c1ccc(C#N)c2sc3c(=O)n(C4CCCCC4)cnc3c12 [compound 105] | > 1 µM |
| C=Cc1ccc(-n2cnc3c(sc4nccc(N(C)C)c43)c2=O)cc1 [compound 136] | < 0.05 µM |
| CC(=O)Oc1ccc(-n2cnc3c(sc4nccc(N(C)C)c43)c2=O)cc1 [compound 138] | < 0.05 µM |
| COc1ccc(-n2cnc3c(sc4ncc(Br)c(N(C)C)c43)c2=O)cc1Br [compound 149] | > 1 µM |
| COc1ccc(-n2cnc3c(sc4nccc(Br)c43)c2=O)cc1 [compound 150] | 0.15 to 1 µM |
| COc1ccc(-n2cnc3c(sc4ncc(Br)c(N(C)C)c43)c2=O)cc1 [compound 151] | < 0.05 µM |
| CNc1c(Br)cnc2sc3c(=O)n(-c4ccc(OC)cc4)cnc3c12 [compound 152] | < 0.05 µM |

More lines, now with the values ahead:

| IC50 | SMILES |
| --- | --- |
| < 0.05 µM | CN(C)c1ccnc2sc3c(=O)n(-c4ccc(Cl)cc4)cnc3c12 [P-2] |
| 0.15 to 1 µM | COc1cccc(-n2cnc3c(sc4nc(N5CCOCC5)c5c(c43)CC(C)(C)OC5)c2=O)c1 [P-4] |
| 0.15 to 1 µM | COc1ccccc1-n1cnc2c(sc3nc(N4CCOCC4)c4c(c32)CC(C)(C)OC4)c1=O [P-5] |
| 0.15 to 1 µM | COc1ccc(NC(=O)CSc2nc3c(sc4nc(C)cc(C)c43)c(=O)n2-c2ccc(Cl)cc2)cc1 [P-6] |
| 0.15 to 1 µM | CCOC(=O)CSc1nc2c(sc3nc(C)cc(C)c32)c(=O)n1-c1ccc(Cl)cc1 [P-7] |
| 0.15 to 1 µM | CC(=O)c1c(C)nc2sc3c(=O)n(-c4ccc(C)cc4)cnc3c2c1-c1ccc(Cl)cc1 [P-8] |
| 0.15 to 1 µM | CC(=O)c1c(C)nc2sc3c(=O)n(-c4ccccc4)cnc3c2c1-c1ccc(Cl)cc1 [P-9] |
| 0.15 to 1 µM | COc1ccc(-c2c(C(C)=O)c(C)nc3sc4c(=O)n(-c5ccc(C)cc5)cnc4c23)cc1 [P-10] |
| 0.15 to 1 µM | COc1ccc(-c2c(C(C)=O)c(C)nc3sc4c(=O)n(-c5ccc(Cl)cc5)cnc4c23)cc1 [P-11] |
| 0.15 to 1 µM | COc1ccc(-c2c(C(C)=O)c(C)nc3sc4c(=O)n(-c5ccccc5)cnc4c23)cc1 [P-12] |
| 0.15 to 1 µM | Cc1ccc(-n2cnc3c(sc4nc(-c5cccs5)cc(C(F)(F)F)c43)c2=O)cc1 [P-13] |
| 0.15 to 1 µM | O=c1c2sc3nc(-c4cccs4)cc(C(F)(F)F)c3c2ncn1-c1ccccc1 [P-14] |
| 0.15 to 1 µM | COc1ccc(-n2cnc3c(sc4nc(C)cc(C)c43)c2=O)cc1 [P-15] |
